Series [1] in a line: Experimental solubility of analogs (method not described). Type of series: physicochemical. The settings on record: aqueous environment.
Series [2] deals with hC3 (Homo sapiens, UniProt P01024). Put plainly: Activity measurements of inhibitory activity against hC3 (method not described). The settings on record: relative to W4A9.
Series [3] relates to complement alternative pathway (AP). Description: C5b-9 ELISA (inhibition of C5b-9 terminal complex formation). Type of series: biochemical, human. The settings on record: table 13; read-out: C5b-9 ELISA IC50. The procedure:
(§1) Inhibition of the complement alternative pathway (AP) by compstatin family peptides was assayed by ELISA. Peptides were dissolved in phosphate buffered saline (PBS, 150 mM). Initial peptide concentrations were calculated using the Beer-Lambert Law with an extinction coefficient of 5,500 (1/M·cm) for Trp and 5,470 (1/M·cm) for methylated-Trp present in the sequence, at 280 nm. Nunc Maxisorp 96-well plates were coated with 1 μg lipopolysaccharides (LPS) from Salmonella enteriditis for ˜16 h at room temperature. Plates were washed three times with PBS/0.05% Tween-20 (PBS-T) between each step. Plates were blocked with 4% bovine serum albumin (BSA) in PBS-T for 1 h at 37° C. Serial peptide dilutions were performed in 96-well plates, using gelatin veronal-buffered saline with 5 mM MgCl2 and 10 mM EGTA (GVBS-MgEGTA). Normal human serum (Complement Technology Inc., Tyler, Tex., USA) was diluted in GVBS-MgEGTA and mixed with compstatin serial dilutions to a final concentration of 30%. Serum diluted in GVBS-MgEGTA and GVBS (containing 20 mM EDTA) were used as positive and negative controls for complement activation, respectively. Dilutions were preincubated for 15 minutes at room temperature, transferred to ELISA plates, and incubated for 1 h at 37° C. Generation of C3b and C5b-9 were assayed using horseradish peroxidase (HRP)-conjugated anti-C3 (MP Biomedicals, Solon, Ohio, USA) and anti-05b-9 aEll (Abcam, Cambridge, Mass., USA), respectively. Plates were washed and incubated with either anti-C3-HRP (1:5000 in 1% BSA/PBS-T) or anti-05b-9 (1:1000 in 1% BSA/PBS-T) for 1 h at 37° C. For C5b-9 detection, primary antibody incubation was followed by incubation with anti-mouse-HRP (BioRad, Hercules, Calif., USA) for 1 h at 37° C. (1:5000 in 1% BSA/PBS-T). Bound C3b and C5b-9 were quantified using a 3,3′,5,5′-tetramethylbenzidine substrate solution containing urea hydrogen peroxide in 0.11 M sodium acetate buffer, followed by a 1 N H2SO4 acid stop. Plates were measured spectrophotometrically at 450 nm. Percent inhibition of C3b and C5b-9 deposition was plotted against peptide concentration and the data was fitted to a logistic dose response curve with Prism software (GraphPad, San Diego, Calif., USA) to determine IC50 values.
(§2) In all assays, MgEGTA was used to chelate Ca′ ions required for classical/lectin pathway complement activation, while providing Mg′ necessary for AP activation. ELISAs allow for direct detection of C3b and C5b-9 formed during AP activation, while erythrocyte lysis assays provide a functional assessment of AP-mediated hemolysis in serum. […] Table 9 summarizes the IC50 values derived from the three different assays. […] The relative potencies of the peptides, based on the measured ICH values, are consistent across all three assays (Peptide III˜Peptide VI˜Peptide IX>Peptide I>Parent). Based on the assay conditions used in this study, peptides inhibited C5b-9 formation with moderately better efficacy than formation of C3b, while slightly higher concentrations were necessary to inhibit AP-mediated hemolysis.
For orientation: An ELISA detects its analyte on a solid surface through an enzyme-linked reagent.

Series [4] shares this test system. Put plainly: C3b ELISA (inhibition of C3b formation). Type of series: biochemical, human. The settings on record: table 13; read-out: C3b ELISA IC50. The procedure: as §1, §2
Series [5] shares this test system. Put plainly: Hemolytic assay (rabbit erythrocyte lysis in human serum). Type of series: cell-based. The settings on record: table 13; read-out: Lysis IC50. The procedure:
Inhibition of complement was also measured via lysis of erythrocytes. Rabbit erythrocytes (Complement Technology Inc., Tyler, Tex., USA) were washed in PBS and resuspended in veronal-buffered saline with 5 mM MgCl2 and 10 mM EGTA (VBS-MgEGTA). Peptide and serum dilutions were prepared as described above, and 1×10^7 erythrocytes were added to each serum/peptide mixture. Erythrocytes diluted in sterile deionized water and in VBS-MgEGTA were used as positive and negative controls for lysis, respectively. Plates were incubated for 20 minutes at 37° C., and centrifuged at 2500×g for 10 minutes.
In all assays, MgEGTA was used to chelate Ca′ ions required for classical/lectin pathway complement activation, while providing Mg′ necessary for AP activation. ELISAs allow for direct detection of C3b and C5b-9 formed during AP activation, while erythrocyte lysis assays provide a functional assessment of AP-mediated hemolysis in serum.

Series [6] deals with complement system. Put plainly: Preliminary ELISA-based complement system inhibition assays, human serum. Type of series: biochemical. The settings on record: preliminary data. From the text: For some of the peptides studied here, W1, W13, R1, and S-1S0, there is experimental evidence for inhibitory activity against hC3. […] The structural rationale was that the positively charged backbone amino group was disrupting the hydrophobic cluster at the termini (spanning residues 11-C2-V3-V4/C12/T13 of native compstatin), which was deemed necessary for binding and activity before the availability of the structure of the C3c-W4A9 complex, and that upon removal of the positive charge by acetylation the hydrophobic cluster was fortified and contributed to the 3-fold increase in activity. […] The peptide with the diserine extension is expected to be active, as the diserine was present at the N-terminus of the original 32-amino acid peptide that was identified in the phage-display and a subsequent study.

Entries after “also recorded” stand apart in the source; their conditions may differ. Bridge positions count the residues as written; N and C are the ends. Peptide text beside a SMILES is read from it.

hC3, sequence (P01024 23-1663): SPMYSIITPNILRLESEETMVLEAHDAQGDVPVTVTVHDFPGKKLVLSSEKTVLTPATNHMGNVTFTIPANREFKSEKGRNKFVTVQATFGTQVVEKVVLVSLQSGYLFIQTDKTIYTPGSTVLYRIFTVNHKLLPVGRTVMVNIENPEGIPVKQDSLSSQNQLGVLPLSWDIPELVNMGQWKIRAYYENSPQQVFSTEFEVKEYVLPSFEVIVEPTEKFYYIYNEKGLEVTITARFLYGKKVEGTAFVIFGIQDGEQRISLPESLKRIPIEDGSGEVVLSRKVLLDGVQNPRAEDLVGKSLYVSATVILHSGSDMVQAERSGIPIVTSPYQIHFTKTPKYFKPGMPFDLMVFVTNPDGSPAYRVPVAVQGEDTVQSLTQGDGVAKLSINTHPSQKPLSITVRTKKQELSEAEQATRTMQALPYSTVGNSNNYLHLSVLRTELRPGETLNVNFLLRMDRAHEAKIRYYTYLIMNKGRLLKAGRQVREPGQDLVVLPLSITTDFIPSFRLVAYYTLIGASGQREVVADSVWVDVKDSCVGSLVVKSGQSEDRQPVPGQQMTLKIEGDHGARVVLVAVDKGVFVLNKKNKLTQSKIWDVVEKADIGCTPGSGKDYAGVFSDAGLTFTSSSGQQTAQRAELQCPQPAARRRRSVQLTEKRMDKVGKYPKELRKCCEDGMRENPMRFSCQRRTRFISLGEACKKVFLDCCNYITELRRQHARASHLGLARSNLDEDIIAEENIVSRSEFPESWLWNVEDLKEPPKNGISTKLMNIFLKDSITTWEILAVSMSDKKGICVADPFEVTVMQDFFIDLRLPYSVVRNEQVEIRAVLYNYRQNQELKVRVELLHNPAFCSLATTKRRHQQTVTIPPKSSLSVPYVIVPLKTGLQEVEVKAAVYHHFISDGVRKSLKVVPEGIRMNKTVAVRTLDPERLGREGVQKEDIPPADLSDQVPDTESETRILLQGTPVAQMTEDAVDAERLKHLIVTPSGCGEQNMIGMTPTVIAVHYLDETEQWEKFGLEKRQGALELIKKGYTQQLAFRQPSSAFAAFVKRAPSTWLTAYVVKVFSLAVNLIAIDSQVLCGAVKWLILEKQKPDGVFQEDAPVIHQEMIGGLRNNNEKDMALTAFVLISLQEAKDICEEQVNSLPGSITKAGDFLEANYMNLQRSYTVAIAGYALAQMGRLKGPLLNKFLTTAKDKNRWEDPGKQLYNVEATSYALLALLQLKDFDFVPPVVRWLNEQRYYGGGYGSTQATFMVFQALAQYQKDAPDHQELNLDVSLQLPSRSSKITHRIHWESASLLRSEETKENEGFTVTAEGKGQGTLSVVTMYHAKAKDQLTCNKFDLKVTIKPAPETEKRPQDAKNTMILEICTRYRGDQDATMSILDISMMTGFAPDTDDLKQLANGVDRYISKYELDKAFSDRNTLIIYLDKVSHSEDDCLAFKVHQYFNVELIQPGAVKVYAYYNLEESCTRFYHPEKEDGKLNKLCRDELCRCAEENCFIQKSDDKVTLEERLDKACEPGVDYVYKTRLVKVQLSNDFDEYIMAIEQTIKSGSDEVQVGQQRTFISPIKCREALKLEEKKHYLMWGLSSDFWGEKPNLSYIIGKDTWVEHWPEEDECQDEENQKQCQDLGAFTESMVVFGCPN

For the compound `CC[C@H](C)[C@H](NC(C)=O)C(=O)N[C@H]1CSSC[C@@H](C(=O)N[C@@H](Cc2c[nH]c3ccccc23)C(N)=O)NC(=O)[C@H](CCCNC(=N)N)NC(=O)[C@H](Cc2c[nH]cn2)NC(=O)[C@H](C)NC(=O)CNC(=O)[C@H](Cc2c[nH]c3ccccc23)NC(=O)[C@H](CC(=O)O)NC(=O)[C@H](CCC(N)=O)NC(=O)[C@H](Cc2c[nH]c3ccccc23)NC(=O)[C@H](C(C)C)NC1=O` [Peptide W13] (Ac-ICVWQDWGAHRCW-NH2; disulfide 2-12), the “solubility (in words)” value in series [1] is “slightly reduced activities and solubilities; also recorded: solubility problems in aqueous environment”. Besides, in series [2], the “inhibitory activity against hC3 (in words)” value is reported as “slightly reduced activities”.

Turning to `CC[C@H](C)[C@H](NC(=O)[C@H](CO)NC(=O)[C@H](CCCNC(=N)N)NC(C)=O)C(=O)N[C@H]1CSSC[C@@H](C(=O)N[C@H](C(N)=O)[C@@H](C)O)NC(=O)[C@H](CCCNC(=N)N)NC(=O)[C@H](Cc2c[nH]cn2)NC(=O)[C@H](C)NC(=O)CNC(=O)[C@H](Cc2c[nH]c3ccccc23)NC(=O)[C@H](CC(=O)O)NC(=O)[C@H](CCC(N)=O)NC(=O)[C@H](Cc2c[nH]c3ccccc23)NC(=O)[C@H](C(C)C)NC1=O` [Peptide 3.4, Ac-RS-ICV WQDWGA HRCT-NH2], the values for the IC50 in series [3], in series [4] and in series [5] were 600 ± 100 nM, 700 ± 100 nM and 300 ± 100 nM, respectively.

Turning to `CC[C@H](C)[C@H](NC(=O)[C@H](CCCNC(=N)N)NC(=O)[C@H](CCC(=O)O)NC(C)=O)C(=O)N[C@H]1CSSC[C@@H](C(=O)N[C@H](C(N)=O)[C@@H](C)O)NC(=O)[C@H](CCCNC(=N)N)NC(=O)[C@H](Cc2c[nH]cn2)NC(=O)[C@H](C)NC(=O)CNC(=O)[C@H](Cc2c[nH]c3ccccc23)NC(=O)[C@H](CC(=O)O)NC(=O)[C@H](CCC(N)=O)NC(=O)[C@H](Cc2c[nH]c3ccccc23)NC(=O)[C@H](C(C)C)NC1=O` [Peptide 3.1, Ac-ER-ICV WQDWGA HRCT-NH2], the results for the IC50 in series [3], in series [4] and in series [5] were 500 ± 100 nM, 900 ± 100 nM and 900 ± 200 nM, respectively.

With `CC[C@H](C)[C@H](NC(=O)[C@H](CO)NC(=O)[C@H](CO)NC(C)=O)C(=O)N[C@H]1CSSC[C@@H](C(=O)N[C@H](C(N)=O)[C@@H](C)O)NC(=O)[C@H](CCCNC(=N)N)NC(=O)[C@H](Cc2c[nH]cn2)NC(=O)[C@H](C)NC(=O)CNC(=O)[C@H](Cc2c[nH]c3ccccc23)NC(=O)[C@H](CC(=O)O)NC(=O)[C@H](CCC(N)=O)NC(=O)[C@H](Cc2c[nH]c3ccccc23)NC(=O)[C@H](C(C)C)NC1=O` [Peptide IV, Ac-SS-ICV WQDWGA HRCT-NH2], the “inhibitory activity in human serum (in words)” value in series [6] was “higher than those of native compstatin and slightly lower than those of the W4A9 analog”.

For the compound `CC(=O)N[C@@H](Cc1c[nH]c2ccccc12)C(=O)N[C@H]1CSSC[C@@H](C(=O)N[C@H](C(N)=O)[C@@H](C)O)NC(=O)[C@H](CCCNC(=N)N)NC(=O)[C@H](Cc2c[nH]cn2)NC(=O)[C@H](C)NC(=O)CNC(=O)[C@H](Cc2c[nH]c3ccccc23)NC(=O)[C@H](CC(=O)O)NC(=O)[C@H](CCC(N)=O)NC(=O)[C@H](Cc2c[nH]c3ccccc23)NC(=O)[C@H](C(C)C)NC1=O` [Peptide W1] (Ac-WCVWQDWGAHRCT-NH2; disulfide 2-12), in series [1], the “solubility (in words)” value is “good solubility”. Further, in series [2], the “inhibitory activity against hC3 (in words)” value was “near-W4A9 inhibitory activity”.

With `CC(=O)N[C@@H](CC(N)=O)C(=O)N[C@@H](CC(N)=O)C(=O)N[C@@H](CC(C)C)C(=O)N[C@H]1CSSC[C@@H](C(=O)N[C@H](C(N)=O)[C@@H](C)O)NC(=O)[C@H](CCCNC(=N)N)NC(=O)[C@H](Cc2c[nH]cn2)NC(=O)[C@H](C)NC(=O)CNC(=O)[C@H](Cc2c[nH]c3ccccc23)NC(=O)[C@H](CC(=O)O)NC(=O)[C@H](CCC(N)=O)NC(=O)[C@H](Cc2c[nH]c3ccccc23)NC(=O)[C@H](C(C)C)NC1=O` [Peptide 3.2, Ac-NN-LCV WQDWGA HRCT-NH2] (Ac-NNLCVWQDWGAHRCT-NH2; disulfide 4-14), the IC50 (commonly the concentration that inhibits the measured activity by half) in series [3] amounted to 500 ± 100 nM; in series [4] it was 600 ± 100 nM; in series [5] it was 300 ± 100 nM.

Take `CC(=O)N[C@@H](Cc1c[nH]c2ccccc12)C(=O)N[C@H]1CSSC[C@@H](C(=O)N[C@@H](Cc2c[nH]c3ccccc23)C(N)=O)NC(=O)[C@H](CCCNC(=N)N)NC(=O)[C@H](Cc2c[nH]cn2)NC(=O)[C@H](C)NC(=O)CNC(=O)[C@H](Cc2c[nH]c3ccccc23)NC(=O)[C@H](CC(=O)O)NC(=O)[C@H](CCC(N)=O)NC(=O)[C@H](Cc2c[nH]c3ccccc23)NC(=O)[C@H](C(C)C)NC1=O` [Peptide W1W13] (Ac-WCVWQDWGAHRCW-NH2; disulfide 2-12): in series [1], the “solubility (in words)” value was “slightly reduced activities and solubilities”. Moreover, the “inhibitory activity against hC3 (in words)” value in series [2] is recorded as “slightly reduced activities”.

`CC(=O)N[C@@H](CC(N)=O)C(=O)N[C@@H](CCCNC(=N)N)C(=O)N[C@@H](CC(C)C)C(=O)N[C@H]1CSSC[C@@H](C(=O)N[C@H](C(N)=O)[C@@H](C)O)NC(=O)[C@H](CCCNC(=N)N)NC(=O)[C@H](Cc2c[nH]cn2)NC(=O)[C@H](C)NC(=O)CNC(=O)[C@H](Cc2c[nH]c3ccccc23)NC(=O)[C@H](CC(=O)O)NC(=O)[C@H](CCC(N)=O)NC(=O)[C@H](Cc2c[nH]c3ccccc23)NC(=O)[C@H](C(C)C)NC1=O` [Peptide 3.3, Ac-NR-LCV WQDWGA HRCT-NH2] (Ac-NRLCVWQDWGAHRCT-NH2; disulfide 4-14): the figures for the IC50 in series [3], in series [4] and in series [5] were 500 ± 100 nM, 600 ± 100 nM and 300 ± 100 nM, respectively.
